Measurements published in patent publication US10227323B2, “Glucosylceramide synthase inhibitors for the treatment of diseases” (BIOMARIN PHARMACEUTICAL INC., priority 2013, dated 2019).

Molecular target: T1, GCS (Canis lupus familiaris, UniProt A0A8I3MXG6)
T1 sequence (A0A8I3MXG6 1-394): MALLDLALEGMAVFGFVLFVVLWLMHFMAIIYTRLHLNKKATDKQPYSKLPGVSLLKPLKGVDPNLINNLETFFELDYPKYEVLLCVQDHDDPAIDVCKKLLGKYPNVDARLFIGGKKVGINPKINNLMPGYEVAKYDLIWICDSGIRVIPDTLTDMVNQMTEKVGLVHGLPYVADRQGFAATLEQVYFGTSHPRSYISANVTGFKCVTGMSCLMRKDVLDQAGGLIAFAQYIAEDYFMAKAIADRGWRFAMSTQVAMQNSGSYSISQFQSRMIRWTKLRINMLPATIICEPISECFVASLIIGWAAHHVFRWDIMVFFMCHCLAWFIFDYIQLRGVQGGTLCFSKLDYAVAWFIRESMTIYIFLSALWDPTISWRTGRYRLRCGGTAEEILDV
Assay: Assay 1: GCS Enzymatic Assay (MDCK cell lysate, C6-NBD-Ceramide, LC/MS)
Format: biochemical, canine
Conditions: Table 2; data marked by *
Summary of the method: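 LC/MS/MS measurement of glucosylceramide and NBD-ceramide after a 1 h, 37 °C reaction with 100 μM UDP-glucose and 10 μM C6-NBD-ceramide gave IC50s or percent inhibition.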

Structure (SMILES)	% inhibition generated from Assay 1
Cn1ncc2ccc(-c3cccc(C(=O)C(=O)N[C@H](CN4CCCC4)[C@H](O)c4ccc(OC5CC5)c(Cl)c4)c3)cc21 [Example 261, N-((1R,2R)-1-(3-chloro-4-cyclopropoxyphenyl)-1-hydroxy-3-(pyrrolidin-1-yl)propan-2-yl)-2-(3-(1-methyl-1H-indazol-6-yl)phenyl)-2-oxoacetamide]	A* (the compound had a % inhibition of a percent inhibition of greater than or equal to about 50%)
O=C(N[C@H](CN1CCCC1)[C@H](O)c1ccc(OC2CC2)c(Cl)c1)C(=O)N1CCN(c2ccc(F)cc2)CC1 [Example 262, N-((1R,2R)-1-(3-chloro-4-cyclopropoxyphenyl)-1-hydroxy-3-(pyrrolidin-1-yl)propan-2-yl)-2-(4-(4-fluorophenyl)piperazin-1-yl)-2-oxoacetamide]	B* (the compound had a % inhibition of greater than or equal to about 3% but less than about 50%)
O=C(N[C@H](CN1CCCC1)[C@H](O)c1ccc(OC2CC2)c(C(F)(F)F)c1)C(=O)c1ccc(-c2ccc(F)cc2)cc1 [Example 265, N-((1R,2R)-1-(4-cyclopropoxy-3-(trifluoromethyl)phenyl)-1-hydroxy-3-(pyrrolidin-1-yl)propan-2-yl)-2-(4′-fluoro-[1,1′-biphenyl]-4-yl)-2-oxoacetamide]	B* (the compound had a % inhibition of greater than or equal to about 3% but less than about 50%)

Same assay, conditions: Table 2; data without asterisk; read-out: IC50 (nM) generated from Assay 1

Structure (SMILES)	IC50 [nM]
O=C(N[C@H](CN1CCCC1)[C@H](O)c1ccc(OC2CC2)cc1)C(=O)c1ccc(N2CCOCC2)cc1 [Compound 374, N-((1R,2R)-1-(4-cyclopropoxyphenyl)-1-hydroxy-3-(pyrrolidin-1-yl)propan-2-yl)-2-(4-morpholinophenyl)-2-oxoacetamide]	50 to 5000
O=C(N[C@H](CN1CCCC1)[C@H](O)c1ccc(OC2CC2)c(Cl)c1)C(=O)c1ccc(N2CCC2)cc1 [Compound 375, 2-(4-(azetidin-1-yl)phenyl)-N-((1R,2R)-1-(3-chloro-4-cyclopropoxyphenyl)-1-hydroxy-3-(pyrrolidin-1-yl)propan-2-yl)-2-oxoacetamide]	50 to 5000
O=C(N[C@H](CN1CCCC1)[C@H](O)c1ccc(OC2CC2)c(Cl)c1)C(=O)c1ccc(F)cc1 [Compound 376, N-((1R,2R)-1-(3-chloro-4-cyclopropoxyphenyl)-1-hydroxy-3-(pyrrolidin-1-yl)propan-2-yl)-2-(4-fluorophenyl)-2-oxoacetamide]	< 50
O=C(N[C@H](CN1CCCC1)[C@H](O)c1ccc(OC2CC2)c(Cl)c1)C(=O)c1cc2ccccc2s1 [Compound 377, 2-(benzo[b]thiophen-2-yl)-N-((1R,2R)-1-(3-chloro-4-cyclopropoxyphenyl)-1-hydroxy-3-(pyrrolidin-1-yl)propan-2-yl)-2-oxoacetamide]	< 50
C#Cc1ccc(C(=O)C(=O)N[C@H](CN2CCCC2)[C@H](O)c2ccc(OC3CC3)c(F)c2)cc1 [Compound 378, N-((1R,2R)-1-(4-cyclopropoxy-3-fluorophenyl)-1-hydroxy-3-(pyrrolidin-1-yl)propan-2-yl)-2-(4-ethynylphenyl)-2-oxoacetamide]	< 50
O=C(N[C@H](CN1CCCC1)[C@H](O)c1cc(F)c2c(c1)OCCO2)C(=O)c1ccc(F)cc1 [Compound 379, N-((1R,2R)-1-(8-fluoro-2,3-dihydrobenzo[b][1,4]dioxin-6-yl)-1-hydroxy-3-(pyrrolidin-1-yl)propan-2-yl)-2-(4-fluorophenyl)-2-oxoacetamide]	< 50
O=C(N[C@H](CN1CCCC1)[C@H](O)c1ccc(OC2CC2)c(Cl)c1)C(=O)C1CCN(c2ccc(F)cc2)CC1 [Compound 380, N-((1R,2R)-1-(3-chloro-4-cyclopropoxyphenyl)-1-hydroxy-3-(pyrrolidin-1-yl)propan-2-yl)-2-(1-(4-fluorophenyl)piperidin-4-yl)-2-oxoacetamide]	50 to 5000
O=C(N[C@H](CN1CCC1)[C@H](O)c1ccc(OC2CC2)c(F)c1)C(=O)c1cc2ccc(Cl)cc2s1 [Compound 381, N-((1R,2R)-3-(azetidin-1-yl)-1-(4-cyclopropoxy-3-fluorophenyl)-1-hydroxypropan-2-yl)-2-(6-chlorobenzo[b]thiophen-2-yl)-2-oxoacetamide]	< 50
CN(C(=O)C(=O)c1ccc(-c2ccc(F)cc2)cc1)[C@H](CN1CCCC1)[C@H](O)c1ccc(OC2CC2)c(F)c1 [Compound 382, N-((1R,2R)-1-(4-cyclopropoxy-3-fluorophenyl)-1-hydroxy-3-(pyrrolidin-1-yl)propan-2-yl)-2-(4′-fluoro-[1,1′-biphenyl]-4-yl)-N-methyl-2-oxoacetamide]	< 50
CN(C(=O)C(=O)c1cc2ccc(Cl)cc2s1)[C@H](CN1CCCC1)[C@H](O)c1ccc(OC2CC2)c(F)c1 [Compound 383, 2-(6-chlorobenzo[b]thiophen-2-yl)-N-((1R,2R)-1-(4-cyclopropoxy-3-fluorophenyl)-1-hydroxy-3-(pyrrolidin-1-yl)propan-2-yl)-N-methyl-2-oxoacetamide]	< 50
CC(C)n1ncc2cc(-c3ccc(C(=O)C(=O)N[C@H](CN4CCCC4)[C@H](O)c4ccc(OC5CC5)c(Cl)c4)cc3)ccc21 [Example 258, N-((1R,2R)-1-(3-chloro-4-cyclopropoxyphenyl)-1-hydroxy-3-(pyrrolidin-1-yl)propan-2-yl)-2-(4-(1-isopropyl-1H-indazol-5-yl)phenyl)-2-oxoacetamide]	< 50
CC(C)n1cc2cc(-c3ccc(C(=O)C(=O)N[C@H](CN4CCCC4)[C@H](O)c4ccc(OC5CC5)c(Cl)c4)cc3)ccc2n1 [Example 259, N-((1R,2R)-1-(3-chloro-4-cyclopropoxyphenyl)-1-hydroxy-3-(pyrrolidin-1-yl)propan-2-yl)-2-(4-(2-isopropyl-2H-indazol-5-yl)phenyl)-2-oxoacetamide]	< 50
O=C(N[C@H](CN1CCCC1)[C@H](O)c1ccc(OC2CC2)c(Cl)c1)C(=O)c1ccc(-c2ccc3sc(Cl)cc3c2)cc1 [Example 263, N-((1R,2R)-1-(3-chloro-4-cyclopropoxyphenyl)-1-hydroxy-3-(pyrrolidin-1-yl)propan-2-yl)-2-(4-(2-chlorobenzo[b]thiophen-5-yl)phenyl)-2-oxoacetamide]	< 50
O=C(N[C@H](CN1CCCC1)[C@H](O)c1ccc(OC2CC2)c(Cl)c1)C(=O)c1ccc(-c2ccc(F)cc2)cn1 [Example 264, N-((1R,2R)-1-(3-chloro-4-cyclopropoxyphenyl)-1-hydroxy-3-(pyrrolidin-1-yl)propan-2-yl)-2-(5-(4-fluorophenyl)pyridin-2-yl)-2-oxoacetamide]	< 50
CC(C)n1ccc2cc(-c3ccc(C(=O)C(=O)N[C@H](CN4CCCC4)[C@H](O)c4ccc(OC5CC5)c(Cl)c4)cc3)ccc21 [Example 266, N-((1R,2R)-1-(3-chloro-4-cyclopropoxyphenyl)-1-hydroxy-3-(pyrrolidin-1-yl)propan-2-yl)-2-(4-(1-isopropyl-1H-indo1-5-yl)phenyl)-2-oxoacetamide]	< 50
O=C(N[C@H](CN1CCCC1)[C@H](O)c1ccc2c(c1)OCCO2)C(=O)c1ccc(-c2ccc(Cl)cc2)cc1 [Example 267, 2-(4′-chloro-[1,1′-biphenyl]-4-yl)-N-((1R,2R)-1-(2,3-dihydrobenzo[b][1,4]dioxin-6-yl)-1-hydroxy-3-(pyrrolidin-1-yl)propan-2-yl)-2-oxoacetamide]	< 50
O=C(N[C@H](CN1CCCC1)[C@H](O)c1ccc2c(c1F)OCCO2)C(=O)c1ccc(-c2ccc(F)cc2)cc1 [Example 268, N-((1R,2R)-1-(5-fluoro-2,3-dihydrobenzo[b][1,4]dioxin-6-yl)-1-hydroxy-3-(pyrrolidin-1-yl)propan-2-yl)-2-(4′-fluoro-[1,1′-biphenyl]-4-yl)-2-oxoacetamide]	< 50
CC(C)n1ccc2cc(-c3ccc(C(=O)C(=O)N[C@H](CN4CCCC4)[C@H](O)c4cc(F)c5c(c4)OCCO5)cc3)ccc21 [Example 269, N-((1R,2R)-1-(8-fluoro-2,3-dihydrobenzo[b][1,4]dioxin-6-yl)-1-hydroxy-3-(pyrrolidin-1-yl)propan-2-yl)-2-(4-(1-isopropyl-1H-indol-5-yl)phenyl)-2-oxoacetamide]	< 50
O=C(N[C@H](CN1CCCC1)[C@H](O)c1ccc(OC2CC2)c(Cl)c1)C(=O)c1ccc(-c2ccc(Cl)cc2)cc1 [Example 270, N-((1R,2R)-1-(3-chloro-4-cyclopropoxyphenyl)-1-hydroxy-3-(pyrrolidin-1-yl)propan-2-yl)-2-(4′-chloro-[1,1′-biphenyl]-4-yl)-2-oxoacetamide]	< 50
CC(C)n1cnc2cc(-c3ccc(C(=O)C(=O)N[C@H](CN4CCCC4)[C@H](O)c4ccc(OC5CC5)c(Cl)c4)cc3)ccc21 [Example 271, N-((1R,2R)-1-(3-chloro-4-cyclopropoxyphenyl)-1-hydroxy-3-(pyrrolidin-1-yl)propan-2-yl)-2-(4-(1-isopropyl-1H-benzo[d]imidazol-5-yl)phenyl)-2-oxoacetamide]	< 50
O=C(N[C@H](CN1CCCC1)[C@H](O)c1cc(F)c2c(c1)OCCO2)C(=O)c1ccc(-c2ccc(Cl)cc2)cc1 [Example 272, 2-(4′-chloro-[1,1′-biphenyl]-4-yl)-N-((1R,2R)-1-(8-fluoro-2,3-dihydrobenzo[b][1,4]dioxin-6-yl)-1-hydroxy-3-(pyrrolidin-1-yl)propan-2-yl)-2-oxoacetamide]	< 50
